Values after ≈ are worked out from the molar mass of the structure shown.
What was measured:
Assay type in all cases: cell-based
E. cloacae ATCC13047 = test: MIC by microbroth dilution (CLSI), strain No. 1; conditions: E. cloacae ATCC13047, AmpC, ceftazidime-resistant, cefepime-sensitive, cation-adjusted Mueller-Hinton broth; for MIC: Enterobacter cloacae, read-out: minimum inhibitory concentration (MIC), Strain No. 1
Method: (§1) The minimum inhibitory concentration (MIC) was measured by the microbroth dilution method in accordance with the procedures recommended by CLSI (Clinical and Laboratory Standards Institute) using 1×10^5 CFU/mL as an inoculum dose and a cation-adjusted Mueller-Hinton broth as a test medium.
(§2) The strains used are as described in the table below.

K. pneumoniae SR01453 = test: MIC by microbroth dilution (CLSI), strain No. 3; conditions: K. pneumoniae SR01453, NDM-1, MBL-producing strain, carbapenem-resistant, cation-adjusted Mueller-Hinton broth; for MIC: Klebsiella pneumoniae, read-out: minimum inhibitory concentration (MIC), Strain No. 3
Method: as §1, §2

K. pneumoniae SR01358 = test: MIC by microbroth dilution (CLSI), strain No. 2; conditions: K. pneumoniae SR01358, KPC-2, KPC-producing strain, cation-adjusted Mueller-Hinton broth; for MIC: Klebsiella pneumoniae, read-out: minimum inhibitory concentration (MIC), Strain No. 2
Method: as §1, §2

K. pneumoniae NCTC13443 = test: MIC by microbroth dilution (CLSI), strain No. 4; conditions: K. pneumoniae NCTC13443, NDM-1, MBL-producing strain, carbapenem-resistant, cation-adjusted Mueller-Hinton broth; for MIC: Klebsiella pneumoniae, read-out: minimum inhibitory concentration (MIC), Strain No. 4
Method: as §1, §2

E. cloacae SR36276 = test: MIC by microbroth dilution (CLSI), strain No. 5; conditions: E. cloacae SR36276, AmpC, highly AmpC-producing strain, ceftazidime-resistant, cefepime-sensitive, cation-adjusted Mueller-Hinton broth; for MIC: Enterobacter cloacae, read-out: minimum inhibitory concentration (MIC), Strain No. 5
Method: as §1, §2

E. coli SR09613 = test: MIC by microbroth dilution (CLSI), strain No. 6; conditions: for MIC: Escherichia coli, SR09613, read-out: minimum inhibitory concentration (MIC), Strain No. 6; for minimum inhibitory concentration (MIC), Strain No. 6: E. coli SR09613, CMY-2 type, plasmid AmpC-producing strain, ceftazidime-resistant, cefepime-sensitive, cation-adjusted Mueller-Hinton broth
Method: as §1, §2

SMILES	MIC (E. cloacae ATCC13047) [µg/mL]	MIC (K. pneumoniae SR01453) [µg/mL]	MIC (K. pneumoniae SR01358) [µg/mL]	MIC (K. pneumoniae NCTC13443) [µg/mL]	MIC (E. cloacae SR36276) [µg/mL]	further results
C[C@H](O/N=C(\C(=O)N[C@@H]1C(=O)N2[C@@H]1[S@@+]([O-])C[C@@H]1CC(=O)O[C@@]12C(=O)O)c1csc(N)n1)C(=O)O [Compound I-005]	0.5 (≈ 0.97 µM)	0.125 (≈ 0.242 µM)	0.5 (≈ 0.97 µM)	1 (≈ 1.94 µM)	0.125 (≈ 0.242 µM)	–
CCO/N=C(\C(=O)N[C@@H]1C(=O)N2[C@@H]1[S@@+]([O-])C[C@@H]1CC(=O)O[C@@]12C(=O)O)c1csc(N)n1 [Compound I-019]	0.5 (≈ 1.06 µM)	0.5 (≈ 1.06 µM)	–	8 (≈ 17 µM)	1 (≈ 2.12 µM)	–
CC[C@H](O/N=C(\C(=O)N[C@@H]1C(=O)N2[C@@H]1[S@@+]([O-])C[C@@H]1CC(=O)O[C@@]12C(=O)O)c1csc(N)n1)C(=O)O [Compound I-009]	0.5 (≈ 0.944 µM)	0.5 (≈ 0.944 µM)	–	4 (≈ 7.55 µM)	0.25 (≈ 0.472 µM)	–
C[n+]1cccc(CO/N=C(\C(=O)N[C@@H]2C(=O)N3[C@@H]2[S@@+]([O-])C[C@@H]2CC(=O)O[C@@]23C(=O)[O-])c2csc(N)n2)c1 [Compound I-043]	–	2 (≈ 3.65 µM)	–	–	–	MIC (E. coli SR09613): 2 µg/mL (≈ 3.65 µM)
Nc1nc(/C(=N/OCc2ccncc2)C(=O)N[C@@H]2C(=O)N3[C@@H]2[S@@+]([O-])C[C@@H]2CC(=O)O[C@@]23C(=O)O)cs1 [Compound I-040]	–	–	–	–	–	MIC (E. coli SR09613): 4 µg/mL (≈ 7.48 µM)
CO/N=C(\C(=O)N[C@@H]1C(=O)N2[C@@H]1S(=O)(=O)C[C@@H]1CC(=O)O[C@@]12C(=O)[O-])c1csc(N)n1.[Na+] [Compound I-070]	1	0.25	1	4	4	–
NC(=O)CO/N=C(\C(=O)N[C@@H]1C(=O)N2[C@@H]1[S@@+]([O-])C[C@@H]1CC(=O)O[C@@]12C(=O)[O-])c1csc(N)n1.[Na+] [Compound I-060]	0.125	0.125	0.5	4	0.5	–
CO/N=C(\C(=O)N[C@@H]1C(=O)N2[C@@H]1[S@@+]([O-])C[C@@H]1CC(=O)O[C@@]12C(=O)[O-])c1csc(N)n1.[Na+] [Compound I-023]	0.25	0.25	1	4	1	–
CC(C)[C@H](O/N=C(\C(=O)N[C@@H]1C(=O)N2[C@@H]1[S@@+]([O-])C[C@@H]1CC(=O)O[C@@]12C(=O)O)c1csc(N)n1)C(=O)O [Compound I-022]	–	1 (≈ 1.84 µM)	–	–	0.5 (≈ 0.92 µM)	–
Nc1nc(/C(=N/O[C@@H](CO)C(=O)O)C(=O)N[C@@H]2C(=O)N3[C@@H]2[S@@+]([O-])C[C@@H]2CC(=O)O[C@@]23C(=O)O)cs1 [Compound I-027]	0.063 (≈ 0.119 µM)	0.063 (≈ 0.119 µM)	0.25 (≈ 0.47 µM)	1 (≈ 1.88 µM)	≤ 0.031	–
Nc1nc(/C(=N/OCCO)C(=O)N[C@@H]2C(=O)N3[C@@H]2[S@@+]([O-])C[C@@H]2CC(=O)O[C@@]23C(=O)[O-])cs1.[Na+] [Compound I-059]	0.063	0.063	0.5	1	0.25	–
CC(CO)(CO)O/N=C(\C(=O)N[C@@H]1C(=O)N2[C@@H]1[S@@+]([O-])C[C@@H]1CC(=O)O[C@@]12C(=O)O)c1csc(N)n1 [Compound I-045]	0.5 (≈ 0.941 µM)	0.25 (≈ 0.47 µM)	–	8 (≈ 15.1 µM)	2 (≈ 3.76 µM)	MIC (E. coli SR09613): 0.25 µg/mL (≈ 0.47 µM)
Nc1nc(/C(=N/O)C(=O)N[C@@H]2C(=O)N3[C@@H]2[S@@+]([O-])C[C@@H]2CC(=O)O[C@@]23C(=O)O)cs1 [Compound I-024]	–	2 (≈ 4.51 µM)	–	–	4 (≈ 9.02 µM)	–
Nc1nc(/C(=N/O[C@H](CO)C(=O)O)C(=O)N[C@@H]2C(=O)N3[C@@H]2[S@@+]([O-])C[C@@H]2CC(=O)O[C@@]23C(=O)O)cs1 [Compound I-026]	0.125 (≈ 0.235 µM)	0.125 (≈ 0.235 µM)	0.5 (≈ 0.941 µM)	1 (≈ 1.88 µM)	0.125 (≈ 0.235 µM)	–
Nc1nc(/C(=N/OCC(=O)O)C(=O)N[C@@H]2C(=O)N3[C@@H]2[SH](O)C[C@@H]2CC(=O)O[C@@]23C(=O)O)c(F)s1 (some centres unmarked) [Compound I-036]	–	–	–	–	–	minimum inhibitory concentration (MIC), Strain No. 1 (E. cloacae ATCC13047): 0.5 µg/mL (≈ 0.959 µM); minimum inhibitory concentration (MIC), Strain No. 3 (K. pneumoniae SR01453): 1 µg/mL (≈ 1.92 µM); minimum inhibitory concentration (MIC), Strain No. 4 (K. pneumoniae NCTC13443): 8 µg/mL (≈ 15.3 µM); minimum inhibitory concentration (MIC), Strain No. 5 (E. cloacae SR36276): 1 µg/mL (≈ 1.92 µM)
CCO/N=C(\C(=O)N[C@@H]1C(=O)N2[C@@H]1S(=O)(=O)C[C@@H]1CC(=O)O[C@@]12C(=O)[O-])c1csc(N)n1.[Na+] [Compound I-071]	2	1	–	8	4	–
COC(=O)NCCO/N=C(\C(=O)N[C@@H]1C(=O)N2[C@@H]1[S@@+]([O-])C[C@@H]1CC(=O)O[C@@]12C(=O)[O-])c1csc(N)n1.[Na+] [Compound I-064]	–	2	–	–	–	–
Nc1nc(/C(=N/OCCF)C(=O)N[C@@H]2C(=O)N3[C@@H]2[S@@+]([O-])C[C@@H]2CC(=O)O[C@@]23C(=O)O)cs1 [Compound I-010]	0.25 (≈ 0.511 µM)	0.25 (≈ 0.511 µM)	–	8 (≈ 16.3 µM)	1 (≈ 2.04 µM)	–
Nc1nc(/C(=N/OCCC(=O)O)C(=O)N[C@@H]2C(=O)N3[C@@H]2[S@@+]([O-])C[C@@H]2CC(=O)O[C@@]23C(=O)[O-])cs1.[Na+] [Compound I-061]	–	–	–	–	–	minimum inhibitory concentration (MIC), Strain No. 1 (E. cloacae ATCC13047): 0.125 µg/mL; minimum inhibitory concentration (MIC), Strain No. 3 (K. pneumoniae SR01453): 0.25 µg/mL; minimum inhibitory concentration (MIC), Strain No. 2 (K. pneumoniae SR01358): 0.5 µg/mL; minimum inhibitory concentration (MIC), Strain No. 4 (K. pneumoniae NCTC13443): 4 µg/mL; minimum inhibitory concentration (MIC), Strain No. 5 (E. cloacae SR36276): 0.25 µg/mL
Nc1nc(/C(=N/OCC(=O)O)C(=O)N[C@@H]2C(=O)N3[C@@H]2[S@@+]([O-])C[C@@H]2CC(=O)O[C@@]23C(=O)O)cs1 [Compound I-001]	0.125 (≈ 0.249 µM)	0.063 (≈ 0.126 µM)	0.25 (≈ 0.499 µM)	1 (≈ 1.99 µM)	0.063 (≈ 0.126 µM)	–
CC(C)(O/N=C(\C(=O)N[C@@H]1C(=O)N2[C@@H]1[S@@+]([O-])C[C@@H]1CC(=O)O[C@@]12C(=O)[O-])c1csc(N)n1)C(=O)[O-].[Na+].[Na+] [Compound I-007]	0.25	0.5	0.5	2	0.25	–
Nc1nc(/C(=N/OC(F)C(=O)O)C(=O)N[C@@H]2C(=O)N3[C@@H]2[S@@+]([O-])C[C@@H]2CC(=O)O[C@@]23C(=O)O)cs1 (some centres unmarked) [Compound I-037]	0.5 (≈ 0.963 µM)	0.25 (≈ 0.481 µM)	1 (≈ 1.93 µM)	8 (≈ 15.4 µM)	0.5 (≈ 0.963 µM)	–
Nc1nc(/C(=N/OCC(=O)O)C(=O)N[C@@H]2C(=O)N3[C@@H]2S(=O)(=O)C[C@@H]2CC(=O)O[C@@]23C(=O)O)cs1 [Compound I-003]	0.25 (≈ 0.483 µM)	0.25 (≈ 0.483 µM)	0.5 (≈ 0.966 µM)	4 (≈ 7.73 µM)	1 (≈ 1.93 µM)	–
Nc1nc(/C(=N/OCc2cc(O)no2)C(=O)N[C@@H]2C(=O)N3[C@@H]2[S@H](O)C[C@@H]2CC(=O)O[C@@]23C(=O)[O-])cs1.[Na+] [Compound I-063]	–	–	–	–	–	minimum inhibitory concentration (MIC), Strain No. 6 (E. coli SR09613): 4 µg/mL
CC(=O)NCCO/N=C(\C(=O)N[C@@H]1C(=O)N2[C@@H]1[S@@+]([O-])C[C@@H]1CC(=O)O[C@@]12C(=O)O)c1csc(N)n1 [Compound I-054]	–	–	–	–	–	minimum inhibitory concentration (MIC), Strain No. 1 (E. cloacae ATCC13047): 1 µg/mL (≈ 1.89 µM); minimum inhibitory concentration (MIC), Strain No. 3 (K. pneumoniae SR01453): 0.5 µg/mL (≈ 0.946 µM); minimum inhibitory concentration (MIC), Strain No. 5 (E. cloacae SR36276): 4 µg/mL (≈ 7.57 µM); minimum inhibitory concentration (MIC), Strain No. 6 (E. coli SR09613): 0.5 µg/mL (≈ 0.946 µM)
Nc1nc(/C(=N/OCC(=O)O)C(=O)N[C@@H]2C(=O)N3[C@@H]2[S@@+]([O-])C[C@@H]2CC(=O)O[C@@]23c2nnn[nH]2)cs1 [Compound I-046]	1 (≈ 1.9 µM)	0.5 (≈ 0.952 µM)	–	–	0.5 (≈ 0.952 µM)	–

— patent US20180186814A1, “TRICYCLIC COMPOUND HAVING SULFINYL OR SULFONYL” (Shionogi & Co., Ltd., priority 2015, published 2018)
